Earlier results as cited in patent publication US20250136601A1 (priority 2022, published 2025).

Experiments:
postsynaptic D2 receptor = postsynaptic D2 receptor (Homo sapiens (Human), UniProt P14416); conditions: postsynaptic D2 receptor antagonist; Li et al., J Med Chem 2014; cited from earlier work
[1] = tested on: depressive episodes associated with bipolar I or II disorder; conditions: Calabrese et al. 2021; cited from earlier work

Sequence of postsynaptic D2 receptor (P14416 whole entry): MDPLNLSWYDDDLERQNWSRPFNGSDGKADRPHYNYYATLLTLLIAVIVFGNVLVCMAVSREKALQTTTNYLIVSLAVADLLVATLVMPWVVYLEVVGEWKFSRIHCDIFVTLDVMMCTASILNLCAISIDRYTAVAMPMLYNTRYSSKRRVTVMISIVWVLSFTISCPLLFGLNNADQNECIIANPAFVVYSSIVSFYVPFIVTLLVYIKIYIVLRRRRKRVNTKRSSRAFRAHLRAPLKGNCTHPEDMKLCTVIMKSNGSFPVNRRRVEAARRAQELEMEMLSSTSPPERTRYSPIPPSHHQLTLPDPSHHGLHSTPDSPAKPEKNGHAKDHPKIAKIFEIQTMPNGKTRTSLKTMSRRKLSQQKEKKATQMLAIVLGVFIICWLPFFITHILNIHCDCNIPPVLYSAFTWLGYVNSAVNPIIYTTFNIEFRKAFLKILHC

For `CN1CCN2c3c(cccc31)[C@@H]1CN(CCCC(=O)c3ccc(F)cc3)CC[C@@H]12` [lumateperone, Lumateperone], the Ki (postsynaptic D2 receptor) is listed as 32 nM and the patient response rate [1] is listed as 51.1%.
